From patent US20160287589A1, “SUBSTITUTED-IMIDAZOPYRIDAZINES” (BAYER PHARMA AKTIENGESELLSCHAFT, priority 2013, published 2016)
Each block holds one molecule with its values, some of them ahead of it.

Key:
MKNK1 [1] = target: T1, MKNK1 (Homo sapiens, UniProt Q9BUB5, T385D); assay: MKNK1 kinase assay (MKNK1 TR-FRET assay); format: biochemical; conditions: 10 μM ATP, 15 min preincubation
T1 construct: GST (N); purchased Carna Biosciences 02-145; host or cells: insect cells (baculovirus expression system)
T1 sequence (Q9BUB5 1-424 isoform Q9BUB5-2 T344D): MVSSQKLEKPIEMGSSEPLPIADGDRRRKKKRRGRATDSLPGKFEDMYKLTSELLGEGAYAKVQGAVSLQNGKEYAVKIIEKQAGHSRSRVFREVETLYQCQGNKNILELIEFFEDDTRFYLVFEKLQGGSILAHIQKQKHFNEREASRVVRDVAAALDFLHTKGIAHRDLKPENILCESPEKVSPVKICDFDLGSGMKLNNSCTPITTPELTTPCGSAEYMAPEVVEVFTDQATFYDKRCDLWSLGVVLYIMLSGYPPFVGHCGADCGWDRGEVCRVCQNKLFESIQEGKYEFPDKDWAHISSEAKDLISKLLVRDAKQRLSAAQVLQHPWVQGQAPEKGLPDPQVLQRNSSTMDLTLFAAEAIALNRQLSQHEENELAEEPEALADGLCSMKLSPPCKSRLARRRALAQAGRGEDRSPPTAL
Excerpt: MKNK1-inhibitory activity of compounds of the present invention was quantified employing the MKNK1 TR-FRET assay as described in the following paragraphs.
A recombinant fusion protein of Glutathione-S-Transferase (GST, N-terminally) and human full-lengt MKNK1 (amino acids 1-424 and T344D of accession number BAA 19885.1), expressed in insect cells using baculovirus expression system and purified via glutathione sepharose affinity chromatography, was purchased from Carna Biosciences (product no 02-145) and used as enzyme. As substrate for the kinase reaction the biotinylated peptide biotin-Ahx-IKKRKLTRRKSLKG (C-terminus in amide form) was used which can be purchased e.g. form the company Biosyntan (Berlin-Buch, Germany).
For the assay 50 nL of a 100 fold concentrated solution of the test compound in DMSO was pipetted into a black low volume 384 well microtiter plate (Greiner Bio-One, Frickenhausen, Germany), 2 μL of a solution of MKNK1 in aqueous assay buffer [50 mM HEPES pH 7.5, 5 mM magnesium chloride, 1.0 mM dithiothreitol, 0.005% (v/v) Nonidet-P40 (Sigma)] was added and the mixture was incubated for 15 min at 22° C. to allow pre-binding of the test compounds to the enzyme before the start of the kinase reaction. […] The concentration of MKNK1 was adjusted depending of the activity of the enzyme lot and was chosen appropriate to have the assay in the linear range, typical concentrations were in the range of […]. The reaction was stopped by the addition of 5 μL of a solution of TR-FRET detection reagents (5 nM streptavidine-XL665 [Cisbio Bioassays, Codolet, France] and 1 nM anti-ribosomal protein S6 (pSer236)-antibody from Invitrogen [#44921G] and 1 nM LANCE EU-W1024 labeled ProteinG [Perkin-Elmer, product no. AD0071]) in an aqueous EDTA-solution (100 mM EDTA, 0.1% (w/v) bovine serum albumin in 50 mM HEPES pH 7.5).
The resulting mixture was incubated for 1 h at 22° C. to allow the formation of complex between the phosphorylated biotinylated peptide and the detection reagents. Subsequently the amount of phosphorylated substrate was evaluated by measurement of the resonance energy transfer from the Eu-chelate to the streptavidine-XL. Therefore, the fluorescence emissions at 620 nm and 665 nm after excitation at 350 nm were measured in a TR-FRET reader, e.g. a Rubystar (BMG Labtechnologies, Offenburg, Germany) or a Viewlux (Perkin-Elmer). The ratio of the emissions at 665 nm and at […] was taken as the measure for the amount of phosphorylated substrate. The data were normalised (enzyme reaction without inhibitor=0% inhibition, all other assay components but no enzyme=100% inhibition).

MKNK1 [2] = target: T1, MKNK1; assay: MKNK1 kinase high ATP assay (TR-FRET-based); format: biochemical; conditions: 2 mM ATP, 15 min preincubation
How it was run: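 TR-FRET read-out (anti-phospho-S6 Ser236 antibody, Eu/XL665) of biotin-peptide phosphorylation (0.06 μM) at high ATP (2 mM final). Enzyme was GST-MKNK1 full length, T344D, pre-bound to compound for 15 min before a 30 min reaction at 22 °C, pH 7.5. Inhibition scaled between no-inhibitor (0%) and no-enzyme (100%) wells.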

Structure (SMILES): CC(C)(C)N1CCN(c2nccc3oc(-c4cnc5ccc(OCCCS(C)(=O)=O)nn45)cc23)CC1 [III-48, 3-[4-(4-tert-Butylpiperazin-1-yl)furo[3,2-c]pyridin-2-yl]-6-[3-(methylsulfonyl)-propoxy]imidazo[1,2-b]pyridazine]
IC50 (MKNK1 [1]; Table 1c): 0.0119 µM
IC50 (MKNK1 [2]; Table 2c): 0.0321 µM

Structure (SMILES): COC[C@@H]1CCCN1c1nccc2oc(-c3cnc4ccc(O[C@H](C)CN)nn34)cc12 [III-136, (2R)-2-[(3-{4-[(2S)-2-(methoxymethyl)pyrrolidin-1-yl]furo[3,2-c]pyridin-2-yl}imidazo[1,2-b]pyridazin-6-yl)oxy]propan-1-amine]
IC50 (MKNK1 [1]; Table 1c): 0.0525 µM
IC50 (MKNK1 [2]; Table 2c): 0.122 µM

Structure (SMILES): C[C@H]1CNCCN1c1cccc2oc(-c3cnc4ccc(OCC(F)(F)F)nn34)cc12 [II-29, 3-{4-[(2S)-2-methylpiperazin-1-yl]-1-benzofuran-2-yl}-6-(2,2,2-trifluoroethoxy)im-idazo[1,2-b]pyridazine]
IC50 (MKNK1 [1]; Table 1b): 0.0054 µM
IC50 (MKNK1 [2]; Table 2b): 0.0027 µM

Structure (SMILES): COc1ccc2ncc(-c3cc4c(N5CCN[C@H](C)C5)cccc4o3)n2n1 [II-39, 6-methoxy-3-{4-[(3R)-3-methylpiperazin-1-yl]-1-benzofuran-2-yl}imidazo[1,2-b]pyridazine]
IC50 (MKNK1 [1]; Table 1b): 0.0016 µM
IC50 (MKNK1 [2]; Table 2b): 0.0011 µM

Structure (SMILES): CC1(C)CN(c2cccc3oc(-c4cnc5ccc(OC[C@H]6CCC(=O)N6)nn45)cc23)CCN1 [II-46, (5R)-5-[({3-[4-(3,3-dimethylpiperazin-1-yl)-1-benzofuran-2-yl]imidazo[1,2-b]pyridazin-6-yl}oxy)methyl]pyrrolidin-2-one]
IC50 (MKNK1 [1]; Table 1b): 0.0014 µM
IC50 (MKNK1 [2]; Table 2b): 0.0002 µM

Structure (SMILES): O=C1CC[C@H](COc2ccc3ncc(-c4cc5c(N6CCN(c7ccccc7)CC6)cccc5o4)n3n2)N1 [II-14, (5R)-5-[({3-[4-(4-Phenylpiperazin-1-yl)-1-benzofuran-2-yl]imidazo[1,2-b]-pyridazin-6-yl}oxy)methyl]pyrrolidin-2-one]
IC50 (MKNK1 [1]; Table 1b): 0.007 µM
IC50 (MKNK1 [2]; Table 2b): 0.027 µM

Structure (SMILES): C[C@@H]1CN(c2nccc3oc(-c4cnc5ccc(O[C@H]6C[C@H](N)C6)nn45)cc23)CCO1 [III-122, trans-3-[(3-{4-[(2R)-2-methylmorpholin-4-yl]furo[3,2-c]pyridin-2-yl}imidazo[1,2-b]pyridazin-6-yl)oxy]cyclobutanamine]
IC50 (MKNK1 [1]; Table 1c): 0.0123 µM
IC50 (MKNK1 [2]; Table 2c): 0.013 µM

Structure (SMILES): CC(C)Oc1nccc2oc(-c3cnc4ccc(OC[C@H]5CCC(=O)N5)nn34)cc12 [IV-4, (5R)-5-[({3-[4-(Propan-2-yloxy)furo[3,2-c]pyridin-2-yl]imidazo[1,2-b]pyridazin-6-yl}oxy)methyl]pyrrolidin-2-one]
IC50 (MKNK1 [1]; Table 1d): 0.002 µM
IC50 (MKNK1 [2]; Table 2d): 0.004 µM

Structure (SMILES): C[C@@H]1COCCN1c1nccc2oc(-c3cnc4ccc(O[C@H]5C[C@H](N)C5)nn34)cc12 [III-107, trans-3-[(3-{4-[(3R)-3-Methylmorpholin-4-yl]furo[3,2-c]pyridin-2-yl}imidazo[1,2-b]pyridazin-6-yl)oxy]cyclobutanamine]
IC50 (MKNK1 [1]; Table 1c): 0.0048 µM
IC50 (MKNK1 [2]; Table 2c): 0.0118 µM

Structure (SMILES): COC[C@H]1CCCN1c1cccc2oc(-c3cnc4ccc(OC[C@H]5CCC(=O)N5)nn34)cc12 [II-9, (5R)-5-{[(3-{4-[(2R)-2-(Methoxymethyl)pyrrolidin-1-yl]-1-benzofuran-2-yl}imidazo[1,2-b]pyridazin-6-yl)oxy]methyl}pyrrolidin-2-one]
IC50 (MKNK1 [1]; Table 1b): 0.0008 µM
IC50 (MKNK1 [2]; Table 2b): 0.0006 µM

Structure (SMILES): COc1nccc2oc(-c3cnc4ccc(OCCC5CCC(=O)N5)nn34)cc12 (stereo not drawn) [IV-2, 5-(2-{[3-(4-Methoxyfuro[3,2-c]pyridin-2-yl)imidazo[1,2-b]pyridazin-6-yl]oxy}-ethyl)pyrrolidin-2-one]
IC50 (MKNK1 [1]; Table 1d): 0.011 µM
IC50 (MKNK1 [2]; Table 2d): 0.026 µM

Structure (SMILES): CCN(CCOC)c1nccc2oc(-c3cnc4ccc(OCC5CCCCN5)nn34)cc12 (stereo not drawn) [III-41, N-Ethyl-N-(2-methoxyethyl)-2-[6-(piperidin-2-ylmethoxy)imidazo[1,2-b]pyridazin-3-yl]furo[3,2-c]pyridin-4-amine]
IC50 (MKNK1 [1]; Table 1c): 0.012 µM
IC50 (MKNK1 [2]; Table 2c): 0.0176 µM

Structure (SMILES): COC[C@H]1CCCN1c1cccc2oc(-c3cnc4ccc(OC[C@@H](C)N)nn34)cc12 [II-26, (2R)-1-[(3-{4-[(2R)-2-(Methoxymethyl)pyrrolidin-1-yl]-1-benzofuran-2-yl}imidazo[1,2-b]pyridazin-6-yl)oxy]propan-2-amine]
IC50 (MKNK1 [1]; Table 1b): 0.0008 µM
IC50 (MKNK1 [2]; Table 2b): 0.0008 µM

Structure (SMILES): COC[C@@H]1CCCN1c1nccc2oc(-c3cnc4ccc(OC[C@H](C)N)nn34)cc12 [III-27, (2S)-1-[(3-{4-[(2S)-2-(Methoxymethyl)pyrrolidin-1-yl]furo[3,2-c]pyridin-2-yl}imidazo[1,2-b]pyridazin-6-yl)oxy]propan-2-amine]
IC50 (MKNK1 [1]; Table 1c): 0.0311 µM
IC50 (MKNK1 [2]; Table 2c): 0.0975 µM

Structure (SMILES): C[C@@H]1COCCN1c1nccc2oc(-c3cnc4ccc(OC[C@@H](C)N)nn34)cc12 [III-3, (2R)-1-[(3-{4-[(3R)-3-Methylmorpholin-4-yl]furo[3,2-c]pyridin-2-yl}imidazo-[1,2-b]pyridazin-6-yl)oxy]propan-2-amine]
IC50 (MKNK1 [1]; Table 1c): 0.0067 µM
IC50 (MKNK1 [2]; Table 2c): 0.0117 µM

Structure (SMILES): C[C@@H]1CN(c2nccc3oc(-c4cnc5ccc(O[C@H]6C[C@H](N)C6)nn45)cc23)C[C@H](C)O1 [III-104, trans-3-[(3-{4-[(2R,6S)-2,6-Dimethylmorpholin-4-yl]furo[3,2-c]pyridin-2-yl}imidazo[1,2-b]pyridazin-6-yl)oxy]cyclobutanamine]
IC50 (MKNK1 [1]; Table 1c): 0.0187 µM
IC50 (MKNK1 [2]; Table 2c): 0.0615 µM

Now from value to molecule:

IC50 (MKNK1 [1]; Table 1b): 0.059 µM
IC50 (MKNK1 [2]; Table 2b): 0.137 µM
Structure (SMILES): C[C@H](N)COc1ccc2ncc(-c3cc4c(N5CCN(c6ccccc6)CC5)cccc4o3)n2n1 [II-15, (2S)-1-({3-[4-(4-Phenylpiperazin-1-yl)-1-benzofuran-2-yl]imidazo[1,2-b]-pyridazin-6-yl}oxy)propan-2-amine]

IC50 (MKNK1 [1]; Table 1a): 0.0131 µM
IC50 (MKNK1 [2]; Table 2a): 0.0341 µM
Structure (SMILES): O=C1CNC[C@@H](COc2ccc3ncc(-c4cc5ccccc5o4)n3n2)N1 [Example I-29, (6S)-6-({[3-(1-Benzofuran-2-yl)imidazo[1,2-b]pyridazin-6-yl]oxy}methyl)-piperazin-2-one]

IC50 (MKNK1 [1]; Table 1a): 0.0245 µM
IC50 (MKNK1 [2]; Table 2a): 0.0477 µM
Structure (SMILES): CC(=O)NC[C@@H](C)Oc1ccc2ncc(-c3cc4ccccc4o3)n2n1 [Example I-80, N-[(2R)-2-{[3-(1-Benzofuran-2-yl)imidazo[1,2-b]pyridazin-6-yl]oxy}-propyl]acetamide]

IC50 (MKNK1 [1]; Table 1a): 0.0052 µM
IC50 (MKNK1 [2]; Table 2a): 0.0118 µM
Structure (SMILES): O=C(NCCOc1ccc2ncc(-c3cc4ccccc4o3)n2n1)c1ccccc1Cl [Example I-65, N-(2-{[3-(1-Benzofuran-2-yl)imidazo[1,2-b]-pyridazin-6-yl]oxy}ethyl)-2-chlorobenzamide]

IC50 (MKNK1 [1]; Table 1a): 0.0079 µM
IC50 (MKNK1 [2]; Table 2a): 0.0222 µM
Structure (SMILES): O=C(NCCOc1ccc2ncc(-c3cc4ccccc4o3)n2n1)c1ccco1 [Example I-77, N-(2-{[3-(1-Benzofuran-2-yl)imidazo[1,2-b]-pyridazin-6-yl]oxy}ethyl)furan-2-carboxamide]

IC50 (MKNK1 [1]; Table 1a): 0.0021 µM
IC50 (MKNK1 [2]; Table 2a): 0.0038 µM
Structure (SMILES): O=C(c1ccon1)N1CCC[C@H]1CCOc1ccc2ncc(-c3cc4ccccc4o3)n2n1 [Example I-55, [(2S)-2-(2-{[3-(1-Benzofuran-2-yl)imidazo[1,2-b]-pyridazin-6-yl]oxy}ethyl)pyrrolidin-1-yl](1,2-oxazol-3-yl)methanone]

IC50 (MKNK1 [1]; Table 1a): 0.0033 µM
IC50 (MKNK1 [2]; Table 2a): 0.0096 µM
Structure (SMILES): O=C1CC[C@H](COc2ccc3ncc(-c4cc5ccccc5o4)n3n2)N1 [Example I-9, (5R)-5-({[3-(1-Benzofuran-2-yl)imidazo[1,2-b]pyridazin-6-yl]oxy}methyl)-pyrrolidin-2-one]

IC50 (MKNK1 [1]; Table 1a): 0.0018 µM
IC50 (MKNK1 [2]; Table 2a): 0.0023 µM
Structure (SMILES): Cn1cc(C(=O)N2CCC[C@H]2CCOc2ccc3ncc(-c4cc5ccccc5o4)n3n2)cn1 [Example I-48, [(2S)-2-(2-{[3-(1-Benzofuran-2-yl)imidazo[1,2-b]-pyridazin-6-yl]oxy}ethyl)pyrrolidin-1-yl](1-methyl-1H-pyrazol-4-yl)methanone]
